The values that follow are results of earlier work, collected in patent publication US20070212498A1, “Optical film, antireflection film, polarizing plate, display apparatus and method for manufacturing optical film” (FUJIFILM Corporation, priority 2006, published 2007).

By pKa is commonly meant the pH at which an ionisable group is half protonated.

The conditions of the data set: pKa of the conjugate acid, values in an aqueous solution (Kagaku Binran Kiso Hen).

For `CCC1CNCCO1` (centres unmarked) [b-13, 2-Ethyl morpholine], the pKa is on record as 7.7. With `CC1CNCCO1` (centres unmarked) [b-14, 2-Methyl morpholine], the pKa was 7.8.
